Measured values published in ChEMBL document CHEMBL6109147, “Discovery of Potent STING Inhibitors Bearing a Difluorobenzodioxol Structural Motif as Potent Anti-Inflammatory Agents” (J Med Chem, 2025).
One block for each compound: values may come before it. Active and inactive are the calls of the source. No cut-off for these calls is given here.

What was measured:
[1] = target: T1, Stimulator of interferon genes protein (Mus musculus, UniProt Q3TBT3); assay: Inhibition of mouse STING in mouse RAW cells assessed as secreted luciferase reporter of interferon stimulated gene (ISG) measured after 24 hrs incubation by QUANTI-Luc detection assay; type: cell-based
T1 sequence (Q3TBT3 whole entry): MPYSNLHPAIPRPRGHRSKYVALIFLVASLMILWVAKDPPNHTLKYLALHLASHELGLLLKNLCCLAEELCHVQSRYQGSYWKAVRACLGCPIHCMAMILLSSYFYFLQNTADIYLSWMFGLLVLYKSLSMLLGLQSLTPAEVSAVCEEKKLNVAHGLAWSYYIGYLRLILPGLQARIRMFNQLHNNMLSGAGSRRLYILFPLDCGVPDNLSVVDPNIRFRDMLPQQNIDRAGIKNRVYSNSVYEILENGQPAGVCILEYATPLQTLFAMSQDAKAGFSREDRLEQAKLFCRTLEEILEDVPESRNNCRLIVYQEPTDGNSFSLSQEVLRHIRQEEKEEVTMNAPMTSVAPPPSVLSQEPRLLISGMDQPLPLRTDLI

[2] = Half life in Sprague-Dawley rat at 1 mg/kg, iv; type: ADME, organism-based; conditions: in vivo
[3] = AUC (0 to infinity) in Sprague-Dawley rat at 1 mg/kg, iv; type: ADME, organism-based; conditions: in vivo
[4] = Volume of distribution at steady state in Sprague-Dawley rat at 1 mg/kg, iv; type: ADME, organism-based; conditions: in vivo
[5] = MRT (0 to infinity) in Sprague-Dawley rat at 1 mg/kg, iv; type: ADME, organism-based; conditions: in vivo
[6] = Clearance in Sprague-Dawley rat at 1 mg/kg, iv; type: ADME, organism-based; conditions: in vivo
[7] = Metabolic stability in mouse liver microsomes assessed as half life; type: ADME, Microsome
[8] = Metabolic stability in rat liver microsomes assessed as half life; type: ADME, Microsome
[9] = Metabolic stability in human liver microsomes assessed as half life; type: ADME, Microsome
[10] = Metabolic stability in mouse liver microsomes assessed as microsomal intrinsic clearance; type: ADME, Microsome; conditions: read-out: CLH
[11] = Metabolic stability in rat liver microsomes assessed as microsomal intrinsic clearance; type: ADME, Microsome; conditions: read-out: CLH
[12] = Metabolic stability in human liver microsomes assessed as microsomal intrinsic clearance; type: ADME, Microsome; conditions: read-out: CLH
[13] = Metabolic stability in mouse liver microsomes assessed as liver intrinsic clearance; type: ADME, Microsome
[14] = Metabolic stability in rat liver microsomes assessed as liver intrinsic clearance; type: ADME, Microsome
[15] = Metabolic stability in human liver microsomes assessed as liver intrinsic clearance; type: ADME, Microsome
Mus musculus [16] = assay: Anti-inflammatory activity against MSA-2 induced C57BL/6 mouse inflammation model assessed as inhibition of MSA-2 induced IL-6 level in plasma at 10 mg/kg, ip pre-treated for 1 hr followed by stimulated with MSA-2 for 4 hrs by ELISA; type: functional, organism-based; conditions: time 5.0 hrs
Mus musculus [17] = assay: Anti-inflammatory activity against MSA-2 induced C57BL/6 mouse inflammation model assessed as inhibition of MSA-2 induced IP-10 level in plasma at 10 mg/kg, ip pre-treated for 1 hr followed by stimulated with MSA-2 for 4 hrs by ELISA; type: functional, organism-based; conditions: time 5.0 hrs
Mus musculus [18] = assay: Anti-inflammatory activity against MSA-2 induced C57BL/6 mouse inflammation model assessed as inhibition of MSA-2 induced IL-6 level in kidney at 10 mg/kg, ip pre-treated for 1 hr followed by stimulated with MSA-2 for 4 hrs by ELISA; type: functional, organism-based; conditions: time 5.0 hrs
Mus musculus [19] = assay: Anti-inflammatory activity against MSA-2 induced C57BL/6 mouse inflammation model assessed as inhibition of MSA-2 induced IP-10 level in kidney at 10 mg/kg, ip pre-treated for 1 hr followed by stimulated with MSA-2 for 4 hrs by ELISA; type: functional, organism-based; conditions: time 5.0 hrs
Mus musculus [20] = assay: Anti-inflammatory activity against MSA-2 induced C57BL/6 mouse inflammation model assessed as inhibition of MSA-2 induced IL-6 mRNA expression in kidney at 10 mg/kg, ip pre-treated for 1 hr followed by stimulated with MSA-2 for 4 hrs by real-time PCR analysis; type: functional, organism-based; conditions: time 5.0 hrs
Mus musculus [21] = assay: Anti-inflammatory activity against MSA-2 induced C57BL/6 mouse inflammation model assessed as inhibition of MSA-2 induced TNF-alpha mRNA expression in kidney at 10 mg/kg, ip pre-treated for 1 hr followed by stimulated with MSA-2 for 4 hrs by real-time PCR analysis; type: functional, organism-based; conditions: time 5.0 hrs
Mus musculus [22] = assay: Anti-inflammatory activity against MSA-2 induced C57BL/6 mouse inflammation model assessed as inhibition of MSA-2 induced Cxcl-10 mRNA expression in kidney at 10 mg/kg, ip pre-treated for 1 hr followed by stimulated with MSA-2 for 4 hrs by real-time PCR analysis; type: functional, organism-based; conditions: time 5.0 hrs
Mus musculus [23] = assay: Anti-inflammatory activity against MSA-2 induced C57BL/6 mouse inflammation model assessed as inhibition of MSA-2 induced Isg15 mRNA expression in kidney at 10 mg/kg, ip pre-treated for 1 hr followed by stimulated with MSA-2 for 4 hrs by real-time PCR analysis; type: functional, organism-based; conditions: time 5.0 hrs
Mus musculus [24] = assay: Anti-inflammatory activity against MSA-2 induced C57BL/6 mouse inflammation model assessed as inhibition of MSA-2 induced Isg56 RNA expression in kidney at 10 mg/kg, ip pre-treated for 1 hr followed by stimulated with MSA-2 for 4 hrs by real-time PCR analysis; type: functional, organism-based; conditions: time 5.0 hrs
HEK293 = assay: Protection of Cisplatin induced apoptosis in human HEK293 cells assessed as apoptotic cells at 10 uM measured after 72 hrs by flow cytometry; type: functional, cell-based
[25] = target: Stimulator of interferon genes protein (Homo sapiens) (UniProt Q86WV6); assay: Binding affinity to Flag-tagged human STING expressed in HEK293T cells assessed as labelling measured after 1 hr by TAMRA-N3 fluorescent assay; type: cell-based
[26] = target: Stimulator of interferon genes protein (Homo sapiens) (UniProt Q86WV6); assay: Binding affinity to Flag-tagged human STING expressed in HEK293T cells assessed as labelling pretreated for 15 mins with (E)-1-(5-(3-Cyanoprop-1-en-1-yl)-1H-indol-3-yl)-3-(2,2-difluorobenzo[d][1,3]dioxol-5-yl)urea followed by treated at 1 uM for 1 hr by TAMRA-N3 fluorescent assay; type: cell-based; conditions: time 75.0 min
[27] = Inhibition of intracellular DNA induced Ifnb mRNA expression in human IMR-90 cells measured after 6 hrs by PCR assay; conditions: IMR-90, 6 h

Sequence of Stimulator of interferon genes protein (Homo sapiens) (Q86WV6 whole entry): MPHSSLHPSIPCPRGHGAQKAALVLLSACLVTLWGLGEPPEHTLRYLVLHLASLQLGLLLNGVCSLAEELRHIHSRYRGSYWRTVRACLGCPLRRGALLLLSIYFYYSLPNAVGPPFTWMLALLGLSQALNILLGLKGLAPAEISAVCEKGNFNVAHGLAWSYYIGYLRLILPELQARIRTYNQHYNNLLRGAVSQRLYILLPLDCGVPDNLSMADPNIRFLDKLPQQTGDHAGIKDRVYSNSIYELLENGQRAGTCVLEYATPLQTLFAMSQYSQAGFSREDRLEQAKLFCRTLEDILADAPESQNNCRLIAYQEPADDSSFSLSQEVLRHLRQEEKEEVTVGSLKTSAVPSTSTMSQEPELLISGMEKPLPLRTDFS

Compound: O=C(Nc1cccc2c1OC(F)(F)O2)Nc1c[nH]c2ccccc12
IC50 [1]: 457 nM

Compound: O=C(Nc1ccc2c(c1)OC(F)(F)O2)Nc1c[nH]c2ccc(Cl)cc12
IC50 [1]: 815 nM

Compound: CCc1ccc(NC(=O)Nc2c[nH]c3ccccc23)cc1
half-life [2]: 9.6 min | AUC(0-inf) [3]: 116 ng·h/mL | Vd ([4]; Sprague-Dawley, read-out: Vdss): 1.94 L/kg | clearance [6]: 144 mL/min/kg | MRT inf ([5]; Sprague-Dawley): 12 min | half-life [7]: 6.29 min | half-life [8]: 1.02 min | half-life [9]: 12.1 min | microsomal CLint [10]: 220 µL/min/mg | microsomal CLint [11]: 1360 µL/min/mg | microsomal CLint [12]: 115 µL/min/mg | CLH [13]: 873 µL/min/mg | CLH [14]: 2448 µL/min/mg | CLH [15]: 103 µL/min/mg | inhibition (Mus musculus [16]): Active | inhibition (Mus musculus [17]): Active | inhibition (Mus musculus [18]): Active | inhibition (Mus musculus [19]): Active | inhibition (Mus musculus [20]): Active | inhibition (Mus musculus [21]): Active | inhibition (Mus musculus [22]): Active | inhibition (Mus musculus [23]): Active | inhibition (Mus musculus [24]): Active | Activity (HEK293): Active

Compound: C#Cc1ccc2[nH]cc(NC(=O)Nc3ccc4c(c3)OC(F)(F)O4)c2c1
IC50 [1]: 5450 nM | Activity [25]: Dose-dependent-effect | Activity [26]: inactive

Compound: O=C(Nc1ccc2c(c1)OC(F)(F)O2)Nc1c[nH]c2ccc(Br)cc12
IC50 [1]: 776 nM

Compound: CC[C@@H]1NC(=O)[C@@H]2[C@H](Cl)[C@H](Cl)CN2C(=O)[C@H](CC)NC(=O)C[C@H](c2ccccc2)NC(=O)[C@H](CO)NC1=O
IC50 [27]: 10800 nM

Results, then the compound that gave them:

IC50 [1]: 229 nM
Compound: Fc1ccc2[nH]cc(Nc3nc4cc5c(cc4[nH]3)OC(F)(F)O5)c2c1

IC50 [1]: 407 nM
Compound: O=C(Nc1ccc2c(c1)OC(F)(F)O2)Nc1c[nH]c2ccccc12

IC50 [1]: 305 nM
Compound: Fc1cc2[nH]cc(Nc3nc4cc(C5CCCC5)ccc4[nH]3)c2cc1F

IC50 [1]: 52.3 nM | half-life [2]: 25.8 min | AUC(0-inf) [3]: 43.8 ng·h/mL | Vdss ([4]; iv, 1 mg/kg): 14.04 L/kg | MRT ([5]; iv, 1 mg/kg): 16.2 min
Compound: Fc1cnc2[nH]cc(Nc3nc4cc(C5CCCC5)ccc4[nH]3)c2c1

IC50 [1]: 210 nM
Compound: Fc1ccc2[nH]cc(Nc3nc4cc(C5CCCC5)ccc4[nH]3)c2c1
